Data published in US8921552B2, “Benzothiazole hybrids useful as anticancer agents and process for the preparation thereof” (Council of Scientific & Industrial Research, priority 2011, dated 2014).

Key:
A-549 = test: In vitro cytotoxicity, SRB assay, lung cancer cell line A-549; type: cell-based, human; details: Homo sapiens, A549, A-549 (lung), read-out: % of growth inhibition; for inhibition at 10 µM: 48 h exposure
Source text: (§1) The benzothiazole hybrids has been tested against seven human tumor cell lines derived from six cancer types (lung cancer, colon cancer, CNS cancer, ovarian cancer, prostate cancer and breast cancer). For these compounds results are expressed as percent of cell growth inhibition relative to that of untreated control cells.

IGR-OV-1 = test: In vitro cytotoxicity, SRB assay, ovarian cancer cell line IGR-OV-1; type: cell-based, human; details: Homo sapiens, IGROV-1, IGR-OV-1 (ovarian), read-out: % of growth inhibition; for inhibition at 10 µM: 48 h exposure
Source text: as §1

SW-620 = test: In vitro cytotoxicity, SRB assay, colon cancer cell line SW-620; type: cell-based; details: Homo sapiens, SW-620 (colon), 48 h exposure, read-out: % of growth inhibition
Experimental: as §1, with “cells. A protocol of 48 h continuous drug exposure has been used, and a sulforhodamine B (SRB) protein assay was used to estimate cell viability or growth.” for “cells.”
(§2) The compounds 9b, 9h, 9m, 9r, 15c, 15h, 15m, 15r, 10b, 10h, 10m, 10r, 16c, 16h and 16m were evaluated for in vitro anticancer activity against seven human tumor cells derived from six cancer types (lung cancer, colon cancer, CNS cancer, ovarian cancer, prostate cancer and breast cancer) at concentration of 10 μM and the results are shown in Table 1.

PC-3 = test: In vitro cytotoxicity, SRB assay, prostate cancer cell line PC-3; type: cell-based, human; details: Homo sapiens, PC-3 (prostate), read-out: % of growth inhibition; for inhibition at 10 µM: 48 h exposure
Source text: as §1

MCF7 = test: In vitro cytotoxicity, SRB assay, breast cancer cell line MCF7; type: cell-based, human; details: Homo sapiens, read-out: % of growth inhibition; for inhibition at 10 µM: 48 h exposure
Source text: as §1

SF-295 = test: In vitro cytotoxicity, SRB assay, CNS cancer cell line SF-295; type: cell-based, human; details: Homo sapiens, SF-295 (CNS), read-out: % of growth inhibition; for inhibition at 10 µM: 48 h exposure
Source text: as §1

human tumor cell lines = test: In vitro anticancer activity, panel of seven human tumor cell lines (SRB assay); type: cell-based; details: for inhibition at 10 µM: Homo sapiens, range over the cell lines, exposure period of at least 48 hrs, read-out: percentage growth inhibition for invitro anticancer activity; for cytotoxic activity in words: various human tumour cell lines
Experimental: as §1, with “cells. A protocol of 48 h continuous drug exposure has been used, and a sulforhodamine B (SRB) protein assay was used to estimate cell viability or growth.” for “cells.”
as §2

Colo-205 = test: In vitro cytotoxicity, SRB assay, colon cancer cell line Colo-205; type: cell-based, human; details: Homo sapiens, Colo-205 (colon), read-out: % of growth inhibition
Source text: as §1

COc1cc(-c2nc3ccccc3s2)ccc1OCCCCN1CCN(CCCCOc2cc(/C=C\c3cc(OC)c(OC)c(OC)c3)ccc2OC)CC1 [Compound 15c, 2-[3-methoxy-4-({4-[4-(4-{2-methoxy-5-[(Z)-2-(3,4,5-trimethoxyphenyl)-1-ethenyl]phenoxy}butyl)piperazino]butyl}oxy)phenyl]-1,3-benzothiazole]
inhibition at 10 µM (A-549): 88% | inhibition at 10 µM (IGR-OV-1): 95% | inhibition at 10 µM (SW-620): 86% | inhibition at 10 µM (PC-3): 53% | inhibition at 10 µM (MCF7): 95% | inhibition at 10 µM (SF-295): 99% | inhibition at 10 µM (human tumor cell lines): 1 to 100% | cytotoxic activity in words (human tumor cell lines): increase in activity

COc1cc(-c2nc3ccccc3s2)ccc1OCCCOc1cc(/C=C\c2cc(OC)c(OC)c(OC)c2)ccc1OC [Compound 9b, 2-[3-methoxy-4-(3-{2-methoxy-5-[(Z)-2-(3,4,5-trimethoxyphenyl)-1-ethenyl]phenoxy}propoxy)phenyl]-1,3-benzothiazole]
inhibition at 10 µM (A-549): 69% | inhibition at 10 µM (IGR-OV-1): 54% | inhibition at 10 µM (Colo-205; 10 μM, 48 h exposure): 16% | inhibition at 10 µM (PC-3): 78% | inhibition at 10 µM (MCF7): 57% | inhibition at 10 µM (SF-295): 53% | inhibition at 10 µM (human tumor cell lines): 1 to 100%

COc1ccc(/C=C/C(=O)c2cc(OC)c(OC)c(OC)c2)cc1OCCCCOc1cccc(-c2nc3ccccc3s2)c1 [Compound 10r, (E)-3-(3-{4-[3-(1,3-benzothiazol-2-yl)phenoxy]butoxy}-4-methoxyphenyl)-1-(3,4,5-trimethoxyphenyl)-2-propen-1-one]
inhibition at 10 µM (A-549): 41% | inhibition at 10 µM (IGR-OV-1): 0% | inhibition at 10 µM (SW-620): 0% | inhibition at 10 µM (PC-3): 1% | inhibition at 10 µM (MCF7): 14% | inhibition at 10 µM (SF-295): 21% | inhibition at 10 µM (human tumor cell lines): 1 to 100%

COc1ccc(/C=C/C(=O)c2cc(OC)c(OC)c(OC)c2)cc1OCCCCN1CCN(CCCCOc2ccc(-c3nc4ccccc4s3)cc2)CC1 [Compound 16h, (E)-3-(3{-[4-(4-{4-[4-(1,3-benzothiazol-2-yl)phenoxy]butyl}piperazino)butyl]oxy}-4-methoxyphenyl)-1-(3,4,5-trimethoxyphenyl)-2-propen-1-one]
inhibition at 10 µM (A-549): 59% | inhibition at 10 µM (IGR-OV-1): 73% | inhibition at 10 µM (SW-620): 0% | inhibition at 10 µM (PC-3): 67% | inhibition at 10 µM (MCF7): 84% | inhibition at 10 µM (SF-295): 63% | inhibition at 10 µM (human tumor cell lines): 1 to 100%

COc1ccc(/C=C\c2cc(OC)c(OC)c(OC)c2)cc1OCCCCN1CCN(CCCCOc2ccc(-c3nc4ccccc4s3)cc2)CC1 [Compound 15h, 2-[4-({4-[4-(4-{2-methoxy-5-[(Z)-2-(3,4,5-trimethoxyphenyl)-1-ethenyl]phenoxy}butyl)piperazino]butyl}oxy)phenyl]-1,3-benzothiazole]
inhibition at 10 µM (A-549): 91% | inhibition at 10 µM (IGR-OV-1): 83% | inhibition at 10 µM (SW-620): 72% | inhibition at 10 µM (PC-3): 96% | inhibition at 10 µM (MCF7): 93% | inhibition at 10 µM (SF-295): 98% | inhibition at 10 µM (human tumor cell lines): 1 to 100% | cytotoxic activity in words (human tumor cell lines): increase in activity

COc1ccc(/C=C\c2cc(OC)c(OC)c(OC)c2)cc1OCCCCN1CCN(CCCCOc2cc(-c3nc4ccccc4s3)ccc2OC)CC1 [Compound 15m, 2-[4-methoxy-3-({4-[4-(4-{2-methoxy-5-[(Z)-2-(3,4,5-trimethoxyphenyl)-1-ethenyl]phenoxy}butyl)piperazino]butyl}oxy)phenyl]-1,3-benzothiazole]
inhibition at 10 µM (A-549): 100% | inhibition at 10 µM (IGR-OV-1): 99% | inhibition at 10 µM (SW-620): 99% | inhibition at 10 µM (PC-3): 60% | inhibition at 10 µM (MCF7): 97% | inhibition at 10 µM (SF-295): 98% | inhibition at 10 µM (human tumor cell lines): 1 to 100% | cytotoxic activity in words (human tumor cell lines): increase in activity

COc1ccc(/C=C/C(=O)c2cc(OC)c(OC)c(OC)c2)cc1OCCCCOc1cc(-c2nc3ccccc3s2)ccc1OC [Compound 10m, (E)-3-(3-{4-[5-(1,3-benzothiazol-2-yl)-2-methoxyphenoxy]butoxy}-4-methoxyphenyl)-1-(3,4,5-trimethoxyphenyl)-2-propen-1-one]
inhibition at 10 µM (A-549): 7% | inhibition at 10 µM (IGR-OV-1): 17% | inhibition at 10 µM (SW-620): 27% | inhibition at 10 µM (PC-3): 0% | inhibition at 10 µM (MCF7): 24% | inhibition at 10 µM (SF-295): 14% | inhibition at 10 µM (human tumor cell lines): 1 to 100%

COc1ccc(/C=C/C(=O)c2cc(OC)c(OC)c(OC)c2)cc1OCCCCOc1ccc(-c2nc3ccccc3s2)cc1 [Compound 10h, (E)-3-(3-{4-[4-(1,3-benzothiazol-2-yl)phenoxy]butoxy}-4-methoxyphenyl)-1-(3,4,5-trimethoxyphenyl)-2-propen-1-one]
inhibition at 10 µM (A-549): 31% | inhibition at 10 µM (IGR-OV-1): 17% | inhibition at 10 µM (SW-620): 2% | inhibition at 10 µM (PC-3): 6% | inhibition at 10 µM (MCF7): 9% | inhibition at 10 µM (SF-295): 38% | inhibition at 10 µM (human tumor cell lines): 1 to 100%

COc1cc(-c2nc3ccccc3s2)ccc1OCCCCN1CCN(CCCCOc2cc(/C=C/C(=O)c3cc(OC)c(OC)c(OC)c3)ccc2OC)CC1 [Compound 16c, (E)-3-(3{-[4-(4-{4-[4-(1,3-benzothiazol-2-yl)-2-methoxyphenoxy]butyl}piperazino)butyl]oxy}-4-methoxyphenyl)-1-(3,4,5-trimethoxyphenyl)-2-propen-1-one]
inhibition at 10 µM (A-549): 58% | inhibition at 10 µM (IGR-OV-1): 67% | inhibition at 10 µM (SW-620): 0% | inhibition at 10 µM (PC-3): 24% | inhibition at 10 µM (MCF7): 69% | inhibition at 10 µM (SF-295): 24% | inhibition at 10 µM (human tumor cell lines): 1 to 100%

CC(=O)O[C@H]1C(=O)[C@@]2(C)[C@H]([C@H](OC(=O)c3ccccc3)[C@]3(O)C[C@H](OC(=O)[C@H](O)[C@@H](NC(=O)c4ccccc4)c4ccccc4)C(C)=C1C3(C)C)[C@]1(OC(C)=O)CO[C@@H]1C[C@@H]2O [Paclitaxel, reference compound]
inhibition at 1 µM (A-549; reference drug at 1 μM): 62% | inhibition at 1 µM (IGR-OV-1; reference drug at 1 μM): 44% | inhibition at 1 µM (Colo-205; reference drug at 1 μM): 95% | inhibition at 1 µM (PC-3; reference drug at 1 μM): 35% | inhibition at 1 µM (MCF7; reference drug at 1 μM): 59% | inhibition at 1 µM (SF-295; reference drug at 1 μM): 59%

COc1ccc(/C=C\c2cc(OC)c(OC)c(OC)c2)cc1OCCCCN1CCN(CCCCOc2cccc(-c3nc4ccccc4s3)c2)CC1 [Compound 15r, 2-[3-({4-[4-(4{-2-methoxy-5-[(Z)-2-(3,4,5-trimethoxyphenyl)-1-ethenyl]phenoxy}butyl)piperazino]butyl}oxy)phenyl]-1,3-benzothiazole]
inhibition at 10 µM (A-549): 96% | inhibition at 10 µM (IGR-OV-1): 92% | inhibition at 10 µM (SW-620): 99% | inhibition at 10 µM (PC-3): 70% | inhibition at 10 µM (MCF7): 88% | inhibition at 10 µM (SF-295): 98% | inhibition at 10 µM (human tumor cell lines): 1 to 100% | cytotoxic activity in words (human tumor cell lines): increase in activity

COc1cc(-c2nc3ccccc3s2)ccc1OCCCOc1cc(/C=C/C(=O)c2cc(OC)c(OC)c(OC)c2)ccc1OC [Compound 10b, (E)-3-(3-{3-[4-(1,3-benzothiazol-2-yl)-2-methoxyphenoxy]propoxy}-4-methoxyphenyl)-1-(3,4,5-trimethoxyphenyl)-2-propen-1-one]
inhibition at 10 µM (A-549): 66% | inhibition at 10 µM (IGR-OV-1): 21% | inhibition at 10 µM (SW-620): 0% | inhibition at 10 µM (PC-3): 5% | inhibition at 10 µM (MCF7): 19% | inhibition at 10 µM (SF-295): 51% | inhibition at 10 µM (human tumor cell lines): 1 to 100%

COc1ccc(/C=C/C(=O)c2cc(OC)c(OC)c(OC)c2)cc1OCCCCN1CCN(CCCCOc2cc(-c3nc4ccccc4s3)ccc2OC)CC1 [Compound 16m, (E)-3-(3{-[4-(4-{4-[5-(1,3-benzothiazol-2-yl)-2-methoxyphenoxy]butyl}piperazino)butyl]oxy}-4-methoxyphenyl)-1-(3,4,5-trimethoxyphenyl)-2-propen-1-one]
inhibition at 10 µM (A-549): 100% | inhibition at 10 µM (IGR-OV-1): 85% | inhibition at 10 µM (SW-620): 0% | inhibition at 10 µM (PC-3): 2% | inhibition at 10 µM (MCF7): 57% | inhibition at 10 µM (SF-295): 15% | inhibition at 10 µM (human tumor cell lines): 1 to 100%

COc1ccc(/C=C\c2cc(OC)c(OC)c(OC)c2)cc1OCCCCOc1cccc(-c2nc3ccccc3s2)c1 [Compound 9r, 2-[3-(4-{2-methoxy-5-[(Z)-2-(3,4,5-trimethoxyphenyl)-1-ethenyl]phenoxy}butoxy)phenyl]-1,3-benzothiazole]
inhibition at 10 µM (A-549): 59% | inhibition at 10 µM (IGR-OV-1): 48% | inhibition at 10 µM (SW-620): 22% | inhibition at 10 µM (PC-3): 59% | inhibition at 10 µM (MCF7): 52% | inhibition at 10 µM (SF-295): 71% | inhibition at 10 µM (human tumor cell lines): 1 to 100%
